Test results as given in patent US12252492B2, “Substituted fused pyrrolo-diazepinones and uses thereof” (Northwestern University, priority 2018, dated 2025).

System: A549/ATCC
Assay: NCI60 one-dose screen, A549
Type: cell-based, human
Conditions: A549 cells; single concentration of 10 μM; NCI60 panel
Method: Anti-cancer activity screening of all compounds was performed by the NCI Developmental Therapeutics Program (DTP) through their NCI60 screening initiative. Assay details can be found at the website dtp.cancer.gov/discovery_development/nci-60/methodology.htm. Information from this website is reproduced here for convenience.
As of early 2007 all compounds submitted to the NCI 60 Cell screen are tested initially at a single high dose (10^-5 M) in the full NCI 60 cell panel. Only compounds which satisfy pre-determined threshold inhibition criteria in a minimum number of cell lines will progress to the full 5-dose assay. The threshold inhibition criteria for progression to the 5-dose screen was selected to efficiently capture compounds with anti-proliferative activity based on careful analysis of historical DTP screening data. The threshold criteria may be updated as additional data becomes available.
The One-dose data will be reported as a mean graph of the percent growth of treated cells and will be similar in appearance to mean graphs from the 5-dose assay. The number reported for the One-dose assay is growth relative to the no-drug control, and relative to the time zero number of cells. This allows detection of both growth inhibition (values between 0 and 100) and lethality (values less than 0). This is the same as for the 5-dose assay, described below. For example, a value of 100 means no growth inhibition. A value of 40 would mean 60% growth inhibition. A value of 0 means no net growth over the course of the experiment. A value of −40 would mean 40% lethality. A value of −100 means all cells are dead. Information from the One-dose mean graph is available for COMPARE analysis.
The human tumor cell lines of the cancer screening panel are grown in RPMI 1640 medium containing 5% fetal bovine serum and 2 mM L-glutamine. For a typical screening experiment, cells are inoculated into 96 well microtiter plates in 100 μL at plating densities ranging from 5,000 to 40,000 cells/well depending on the doubling time of individual cell lines. After cell inoculation, the microtiter plates are incubated at 37° C., 5% CO2, 95% air and 100% relative humidity for 24 h prior to addition of experimental drugs.
After 24 h, two plates of each cell line are fixed in situ with TCA, to represent a measurement of the cell population for each cell line at the time of drug addition (Tz). Experimental drugs are solubilized in dimethyl sulfoxide at 400-fold the desired final maximum test concentration and stored frozen prior to use. At the time of drug addition, an aliquot of frozen concentrate is thawed and diluted to twice the desired final maximum test concentration with complete medium containing 50 μg/ml gentamicin. Additional four, 10-fold or ½ log serial dilutions are made to provide a total of five drug concentrations plus control. Aliquots of 100 μl of these different drug dilutions are added to the appropriate microtiter wells already containing 100 μl of medium, resulting in the required final drug concentrations.
Following drug addition, the plates are incubated for an additional 48 h at 37° C., 5% CO2, 95% air, and 100% relative humidity. For adherent cells, the assay is terminated by the addition of cold TCA. Cells are fixed in situ by the gentle addition of 50 μl of cold 50% (w/v) TCA (final concentration, 10% TCA) and incubated for 60 minutes at 4° C. The supernatant is discarded, and the plates are washed five times with tap water and air dried. Sulforhodamine B (SRB) solution (100 μl) at 0.4% (w/v) in 1% acetic acid is added to each well, and plates are incubated for 10 minutes at room temperature. After staining, unbound dye is removed by washing five times with 1% acetic acid and the plates are air dried. Bound stain is subsequently solubilized with 10 mM trizma base, and the absorbance is read on an automated plate reader at a wavelength of 515 nm. […]

| SMILES | reduction of cell growth of A549 non-small cell lung cancer cells [%] |
| --- | --- |
| CC(C)C1C2=C(NCCN1C(=O)C1CCCC1)C(C)(C)N(Cc1ccccc1)C2=O (stereo not shown) [Compound 8c] | 24 |
| CC(C)C1C2=C(NCCN1C(=O)c1ccncc1)C(C)(C)N(Cc1ccccc1)C2=O (stereo not shown) [Compound 8e] | < 5 |
| CC(C)C1C2=C(NCCN1C(=O)c1cccnc1)C(C)(C)N(Cc1ccccc1)C2=O (stereo not shown) [Compound 8f] | 32 |
| CC1(C)C2=C(C(=O)N1Cc1ccccc1)C(c1ccco1)N(C(=O)C1CCC1)CCN2 (stereo not shown) [Compound 8m, 7-benzyl-4-(cyclobutanecarbonyl)-5-(furan-2-yl)-8,8-dimethyl-2,3,4,5,7,8-hexahydropyrrolo[3,4-e][1,4]diazepin-6(1H)-one] | 24 |
